The record followed here is patent US6713490B2, “3,4-dihydroquinolin-2(1H)-one compounds as NR2B receptor antagonists” (Pfizer, Inc., priority 2002, dated 2004).

One series has as its target NR2B (Homo sapiens, UniProt Q05586+Q13224). The series can be described thus: Functional activity (method not described). The series is classed as cell-based.
The target in the next series is T1, NR2B subunit (Rattus norvegicus, UniProt P35439+Q00960).
T1 construct: Membranes were prepared by homogenization of forebrain of male CD rats; from tissue; host or cells: rat forebrain P2 membrane
T1 sequence (Q00960 27-1482, other chains not shown): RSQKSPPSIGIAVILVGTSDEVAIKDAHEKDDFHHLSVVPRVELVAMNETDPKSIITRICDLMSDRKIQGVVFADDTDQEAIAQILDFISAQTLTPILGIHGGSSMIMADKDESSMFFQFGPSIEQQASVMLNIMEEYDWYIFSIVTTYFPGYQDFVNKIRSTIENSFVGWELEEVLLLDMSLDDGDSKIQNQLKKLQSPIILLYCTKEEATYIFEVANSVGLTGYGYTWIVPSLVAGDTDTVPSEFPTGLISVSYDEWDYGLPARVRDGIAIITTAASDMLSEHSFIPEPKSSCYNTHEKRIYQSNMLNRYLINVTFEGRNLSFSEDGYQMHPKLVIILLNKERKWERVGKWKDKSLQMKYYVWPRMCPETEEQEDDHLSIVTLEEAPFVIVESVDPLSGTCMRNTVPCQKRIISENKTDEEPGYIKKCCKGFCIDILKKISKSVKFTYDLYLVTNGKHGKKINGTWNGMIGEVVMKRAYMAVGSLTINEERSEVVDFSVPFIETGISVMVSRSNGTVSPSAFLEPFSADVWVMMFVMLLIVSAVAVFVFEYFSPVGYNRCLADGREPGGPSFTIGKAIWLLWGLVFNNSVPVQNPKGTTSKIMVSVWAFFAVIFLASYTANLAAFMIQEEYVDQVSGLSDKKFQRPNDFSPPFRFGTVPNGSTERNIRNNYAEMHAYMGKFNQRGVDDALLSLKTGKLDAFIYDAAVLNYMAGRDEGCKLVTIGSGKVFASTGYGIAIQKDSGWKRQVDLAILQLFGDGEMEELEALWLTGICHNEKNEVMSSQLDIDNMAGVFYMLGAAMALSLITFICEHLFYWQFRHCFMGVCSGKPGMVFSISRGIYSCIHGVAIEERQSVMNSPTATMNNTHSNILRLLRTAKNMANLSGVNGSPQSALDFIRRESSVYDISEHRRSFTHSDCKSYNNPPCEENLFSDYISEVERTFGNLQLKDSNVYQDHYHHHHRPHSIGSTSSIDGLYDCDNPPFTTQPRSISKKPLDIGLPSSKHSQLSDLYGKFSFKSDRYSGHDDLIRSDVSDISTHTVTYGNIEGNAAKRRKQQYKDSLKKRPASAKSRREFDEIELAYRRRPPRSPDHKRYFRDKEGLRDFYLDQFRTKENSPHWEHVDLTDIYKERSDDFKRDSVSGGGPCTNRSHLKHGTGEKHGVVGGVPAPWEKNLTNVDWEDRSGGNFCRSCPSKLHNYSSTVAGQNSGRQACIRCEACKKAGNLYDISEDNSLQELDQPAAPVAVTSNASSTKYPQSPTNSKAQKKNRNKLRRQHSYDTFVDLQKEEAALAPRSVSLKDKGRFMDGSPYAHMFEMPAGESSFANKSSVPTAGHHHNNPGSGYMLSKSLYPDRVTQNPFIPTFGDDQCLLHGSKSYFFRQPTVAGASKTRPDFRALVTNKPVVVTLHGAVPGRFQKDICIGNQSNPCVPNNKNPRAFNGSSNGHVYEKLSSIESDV
Briefly: NR2B binding assay ([3H]-CP-98,113 competition, rat forebrain P2 membrane). To be noted: 5 nM [3H]-CP-98,113, rat forebrain P2 membrane. The protocol:
The activity of the 3,4-dihydroquinolin-2(1H)-one compounds of the present invention, as NR2B antagonists, is determined by their ability to inhibit the binding of NR2B subunit at its receptor sites employing radioactive ligands.
The NR2B antagonist activity of the 3,4-dihydroquinolin-2(1H)-one compounds is evaluated by using the standard assay procedure described in, for example, J. Pharmacol., 331, pp117-126, 1997. […] More specifically, the assay is carried out as follows.
Membranes were prepared by homogenization of forebrain of male CD rats weighing between 170˜190 g by using glass-Teflon homogenizer in 0.32 M sucrose at 4° C. […]
For the saturation assay, receptor saturation was determined by incubating [^3H]-CP-98,113 and 50 μg protein of P2 membrane for 60 minutes at room temperature in a final 100 μl of incubation buffer (50 mM Tris HCl, pH7.4). Total and non-specific bindings (in the presence of 10 μM of unlabeled CP-98,113) were determined in a range of [^3H]-CP-98113 concentrations (0.625 nM to 60 nM). […]
For the competition assay, test compounds were incubated in duplicate with 5 nM [^3H]-CP-98,113 and 50 μg protein of P2 membrane for 60 minutes at room temperature in a final 100 μl of 50 mM Tris HCl buffer (pH7.4). Nonspecific binding was determined by 10 μM of unlabeled CP-98,113 (25 μl). […]

Another series deals with T2, HERG potassium channel (Homo sapiens, UniProt Q12809).
T2 construct: expressed in transfected cells; host or cells: HEK-293
T2 sequence (Q12809 whole entry): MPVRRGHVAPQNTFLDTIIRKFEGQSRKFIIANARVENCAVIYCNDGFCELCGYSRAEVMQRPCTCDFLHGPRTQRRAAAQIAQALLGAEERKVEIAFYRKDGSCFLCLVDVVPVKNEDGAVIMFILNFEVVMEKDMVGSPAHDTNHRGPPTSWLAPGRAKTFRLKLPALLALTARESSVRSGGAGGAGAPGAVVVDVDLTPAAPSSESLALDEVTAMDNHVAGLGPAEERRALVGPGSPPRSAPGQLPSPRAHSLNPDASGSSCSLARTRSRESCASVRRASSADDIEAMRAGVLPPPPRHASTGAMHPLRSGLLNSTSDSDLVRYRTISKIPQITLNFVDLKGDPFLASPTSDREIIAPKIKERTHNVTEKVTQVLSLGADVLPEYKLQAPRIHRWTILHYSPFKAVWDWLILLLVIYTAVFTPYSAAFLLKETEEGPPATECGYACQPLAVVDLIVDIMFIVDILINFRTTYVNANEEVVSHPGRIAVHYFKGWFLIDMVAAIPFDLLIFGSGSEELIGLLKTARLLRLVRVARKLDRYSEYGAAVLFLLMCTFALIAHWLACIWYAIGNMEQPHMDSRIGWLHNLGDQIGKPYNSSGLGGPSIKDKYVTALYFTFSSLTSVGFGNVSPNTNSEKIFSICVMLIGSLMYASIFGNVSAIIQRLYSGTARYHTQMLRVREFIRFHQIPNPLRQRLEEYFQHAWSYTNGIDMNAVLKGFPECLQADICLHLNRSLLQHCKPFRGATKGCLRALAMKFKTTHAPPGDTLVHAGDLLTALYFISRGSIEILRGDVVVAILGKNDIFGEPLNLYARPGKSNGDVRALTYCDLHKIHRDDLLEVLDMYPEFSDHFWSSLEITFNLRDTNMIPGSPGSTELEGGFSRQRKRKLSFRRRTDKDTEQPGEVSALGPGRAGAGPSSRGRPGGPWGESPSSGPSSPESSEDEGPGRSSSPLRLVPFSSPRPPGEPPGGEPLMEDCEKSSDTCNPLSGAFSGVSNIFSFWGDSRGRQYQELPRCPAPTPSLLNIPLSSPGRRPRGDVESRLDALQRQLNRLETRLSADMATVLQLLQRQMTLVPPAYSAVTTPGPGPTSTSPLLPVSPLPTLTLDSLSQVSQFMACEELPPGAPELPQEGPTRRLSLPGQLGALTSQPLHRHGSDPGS
Briefly: Dofetilide binding assay ([3H]-dofetilide competition, membranes of HEK-293 cells expressing the HERG product).

Each structure is given as a SMILES string. Where a name gives a salt, the structure may show the parent alone.

Sequence of NR2B (Q13224 27-1484, species assumed, other chains not shown): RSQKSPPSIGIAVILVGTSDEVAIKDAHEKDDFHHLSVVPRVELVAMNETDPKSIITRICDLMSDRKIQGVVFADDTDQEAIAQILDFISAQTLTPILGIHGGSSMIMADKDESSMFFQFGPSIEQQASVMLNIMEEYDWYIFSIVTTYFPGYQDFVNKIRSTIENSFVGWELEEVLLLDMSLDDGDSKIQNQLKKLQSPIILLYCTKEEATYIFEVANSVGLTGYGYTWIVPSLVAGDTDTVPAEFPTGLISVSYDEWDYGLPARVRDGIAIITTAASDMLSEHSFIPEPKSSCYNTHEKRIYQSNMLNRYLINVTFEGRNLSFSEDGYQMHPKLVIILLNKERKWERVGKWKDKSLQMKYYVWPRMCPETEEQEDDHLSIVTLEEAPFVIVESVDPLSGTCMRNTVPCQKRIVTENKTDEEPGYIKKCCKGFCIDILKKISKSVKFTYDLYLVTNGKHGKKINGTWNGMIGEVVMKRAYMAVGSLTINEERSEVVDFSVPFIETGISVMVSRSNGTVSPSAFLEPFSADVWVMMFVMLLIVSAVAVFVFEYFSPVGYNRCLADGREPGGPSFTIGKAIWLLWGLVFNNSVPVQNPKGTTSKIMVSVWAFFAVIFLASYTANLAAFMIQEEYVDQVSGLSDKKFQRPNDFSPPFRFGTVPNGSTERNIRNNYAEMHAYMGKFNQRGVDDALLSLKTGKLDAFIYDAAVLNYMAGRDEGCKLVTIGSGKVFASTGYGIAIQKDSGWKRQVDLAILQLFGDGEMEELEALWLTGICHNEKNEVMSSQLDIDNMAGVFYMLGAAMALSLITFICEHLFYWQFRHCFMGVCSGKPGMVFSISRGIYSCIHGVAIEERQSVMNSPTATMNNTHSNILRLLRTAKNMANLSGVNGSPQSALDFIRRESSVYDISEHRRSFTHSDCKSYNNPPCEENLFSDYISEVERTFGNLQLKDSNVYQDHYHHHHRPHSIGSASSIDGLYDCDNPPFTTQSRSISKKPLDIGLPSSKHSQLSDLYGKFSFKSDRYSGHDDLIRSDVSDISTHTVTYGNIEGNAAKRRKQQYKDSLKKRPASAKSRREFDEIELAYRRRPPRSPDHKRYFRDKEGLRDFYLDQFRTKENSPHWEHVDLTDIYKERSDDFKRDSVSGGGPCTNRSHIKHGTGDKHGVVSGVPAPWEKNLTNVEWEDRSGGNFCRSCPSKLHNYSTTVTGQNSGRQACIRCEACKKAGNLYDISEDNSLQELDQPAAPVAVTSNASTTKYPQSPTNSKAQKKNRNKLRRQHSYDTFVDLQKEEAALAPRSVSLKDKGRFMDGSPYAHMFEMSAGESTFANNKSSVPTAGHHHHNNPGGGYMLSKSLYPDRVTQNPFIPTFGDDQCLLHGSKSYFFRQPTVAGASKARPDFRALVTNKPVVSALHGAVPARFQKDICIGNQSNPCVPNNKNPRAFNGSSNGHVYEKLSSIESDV

A word on the IC50: it is the concentration that inhibits the measured activity by half. A higher IC50 goes with weaker potency. On NR2B, `C[C@H]([C@H](O)c1ccc2c(c1)CCC(=O)N2)N1CCC(O)(c2ccccc2)CC1` gave an IC50 of 22.4 nM.
As a reminder, the Ki is a measure of affinity in units of concentration, obtained from inhibition or displacement. A low value points to higher affinity. Take `O=C1CCc2cc([C@@H](O)CN3CCC(O)(c4cccc(F)c4)CC3)ccc2N1`: the Ki was determined as 3.5 nM at NR2B subunit and 8300 nM at HERG potassium channel (5 nM [3H]-dofetilide, HERG homogenate of HEK-293 cells). Also, at HERG potassium channel (TI = Dofetilide Binding Ki [μM]/NR2B Binding Ki [nM] x 1000), the “TI (Defetilide/NR2B)” value stood at 2400. Besides, the IC50 on NR2B is 11.9 nM.
Usually melting point stands for the temperature of the solid-liquid transition. With `CS(=O)(=O)O.O=C1CCc2cc([C@@H](O)CN3CCC(O)(c4cccc(F)c4)CC3)ccc2N1`, the melting point lay in the range of 180 to 182 °C.
Compound `COc1cccc(C2(O)CCN(CC(O)c3ccc4c(c3)CCC(=O)N4)CC2)c1` (stereo not drawn) (as salt: hydrochloride) [Example 2, 6-{1-Hydroxy-2-[4-hydroxy-4-(3-methoxyphenyl)-1-piperidinyl]ethyl}-3,4-dihydroquinolin-2(1H)-one Hydrochloride] displayed a melting point of 246.9 °C.
On the same count and under the same terms, the result for `Cc1cccc(C2(O)CCN(CC(O)c3ccc4c(c3)CCC(=O)N4)CC2)c1` (stereo not drawn) (as salt: mesylate) [Example 4, 6-[1-Hydroxy-2-[4-hydroxy-4-(3-methylphenyl)piperidin-1-yl]ethyl]-3,4-dihydroquinolin-2(1H)-one mesylate] reads 98 to 100 °C (dec.).
With `C[C@H]([C@H](O)c1ccc2c(c1)CCC(=O)N2)N1CCC(O)(c2ccc(F)cc2)CC1` [reference compound], at NR2B subunit, the inhibition constant Ki was 7 nM.
